# Where no end group is shown, it is not given here.
# Test system: GM-CSF
# Test: GM-CSF activity on bone marrow precursors (liquid culture, methylene blue dye absorbance of adherent granulocytes and macrophages)
# Type: cell-based, murine
# Settings: at any of the test concentrations (Figure 2)
# Protocol: To determine the effect of the desired inhibitory oligopeptide, the following assay, using murine bone marrow precursors, was developed. Of course, if using an oligopeptide derivable from a species other than murine, substitution of cells from that species into the assay procedure would be required.
# The biological activity of GM-CSF was determined in a liquid culture system of murine bone marrow cells (see, e.g., I. Bursuker, et al., J. Reticuloendothelial Soc., 25, 533 (1979)). Bone marrow cells were collected from femurs and tibia of 10 to 12 week old CB6F1 (C57BLxBalb/c) male mice (Harlan-Sprague Dawley, Inc., Indianapolis, Indiana) by flushing dissected and clean bones with phosphate buffered saline ("PBS", GIBCO, Grand Island, New York). Viable cell count was determined using trypan blue. The cells then were plated (1 ml/well; 2 X 10^5 cells/ml) in 24-well tissue culture plates (Costar, Cambridge, MA). Granulocyte-macrophage colony stimulating factor ("GM-CSF"; 2 ng/ml; recombinantly produced and available from PeproTech, Inc., Rocky Hill, NJ) and the desired oligopeptide were added at the desired concentration to the wells. […] The dye absorbance was measured at 620 nm in a MCC/340 Titertech Multiscan plate reader (Eflab, Helsinki, Finland). The dye absorbance reading is proportional to the number of cells in the culture.
sequence,measurement,value
"YYQTYCPPTPETD [Oligopeptide P96-109, oligopeptide spanning a region of the murine GM-CSF molecule, 13 amino acids]",effect on the biological activity of GM-CSF,did not affect
